Reference: patent US12508176B2, “Sanitary article comprising a water-soluble dry coating comprising skin beneficial additives” (priority 2022, dated 2025)

Test: transfer study of dry water-soluble coating from sanitary article to skin (tape stripping, LC-MS/MS)
Format: in vivo, test persons
Source text: FIG. 3 is a bar chart illustrating the results from a transfer study made with two sanitary articles according to the present invention. Eight test persons wore sanitary articles on three different spots on the volar forearms for three days (3 products per day). One spot was covered with products coated with formula A, one with products coated with formula B and one with reference product without any formula. After three days the skin in the test spots plus one additional spot where no product had been worn was harvested by means of tape stripping. The sample tape strips were extracted, analyzed by LC-MS/MS quantifying the betaine and allantoin content.

Structure (SMILES)	transfer to the skin (betaine and allantoin content of tape strips) (sanitary articles coated with formula A or B worn on volar forearms for three days, 3 products per day, tape stripping, LC-MS/MS, FIG. 3)	transfer to the skin (betaine and allantoin content of tape strips) (in vivo)
NC(=O)NC1NC(=O)NC1=O (centres unmarked) [allantoin]	readily detected on the skin	–
C[N+](C)(C)CC(=O)[O-] [betaine, trimethylglycine]	–	readily detected on the skin
